Source: the NIST ThermoML archive (doi:10.1021/je060271a)

Conditions: 283.14 K, Liquid, Vibrating tube method

CCCCCCC(=O)OCC(COC(=O)CCCCCC)(COC(=O)CCCCCC)COC(=O)CCCCCC [pentaerythritol tetraheptanoate]
Conditions | mass density [kg/m3]
19935 kPa | 997
19962 kPa | 996.9
19984 kPa | 996.9
20007 kPa | 996.9
20034 kPa | 997
20057 kPa | 997
20081 kPa | 997
20105 kPa | 997
20133 kPa | 997
20156 kPa | 997
20179 kPa | 997.1
20202 kPa | 997
20230 kPa | 997
20253 kPa | 997.1
20282 kPa | 997.1
20305 kPa | 997
20328 kPa | 997.1
20356 kPa | 997.1
20380 kPa | 997.1
20404 kPa | 997.2
20428 kPa | 997.2
20456 kPa | 997.2
20480 kPa | 997.2
20504 kPa | 997.2
20533 kPa | 997.2
20557 kPa | 997.2
20586 kPa | 997.3
20610 kPa | 997.3
20634 kPa | 997.3
20663 kPa | 997.3
20688 kPa | 997.3
20713 kPa | 997.3
20742 kPa | 997.2
20768 kPa | 997.5
20792 kPa | 997.5
20822 kPa | 997.5
20846 kPa | 997.4
20871 kPa | 997.4
20896 kPa | 997.4
20926 kPa | 997.4
20951 kPa | 997.4
20976 kPa | 997.4
21007 kPa | 997.6
21032 kPa | 997.5
21062 kPa | 997.5
21088 kPa | 997.5
21114 kPa | 997.6
21140 kPa | 997.6
21171 kPa | 997.6
21196 kPa | 997.4
21222 kPa | 997.6
21254 kPa | 997.6
21279 kPa | 997.6
21310 kPa | 997.7
21336 kPa | 997.5
21362 kPa | 997.7
21393 kPa | 997.6
21419 kPa | 997.7
21446 kPa | 997.7
21473 kPa | 997.7
21505 kPa | 997.7
21531 kPa | 997.7
21558 kPa | 997.6
21585 kPa | 997.8
21617 kPa | 997.6
21644 kPa | 997.8
21671 kPa | 997.9
21703 kPa | 997.8
21730 kPa | 997.9
21758 kPa | 997.8
21790 kPa | 997.9
21818 kPa | 997.9
21846 kPa | 997.9
21873 kPa | 997.7
21906 kPa | 998
21933 kPa | 997.9
21961 kPa | 998
21994 kPa | 997.9
22022 kPa | 997.9
22055 kPa | 998
22083 kPa | 998
22111 kPa | 997.9
22139 kPa | 998.1
22174 kPa | 998.1
22199 kPa | 998
22233 kPa | 998.1
22261 kPa | 998.2
22294 kPa | 998.1
22323 kPa | 998.1
22352 kPa | 998.2
22381 kPa | 998.2
22416 kPa | 998.2
22444 kPa | 998.2
22474 kPa | 998.1
22509 kPa | 998.2
22538 kPa | 998.2
22569 kPa | 998.2
22599 kPa | 998.2
22628 kPa | 998.3
22664 kPa | 998.4
22694 kPa | 998.3
22724 kPa | 998.3
22760 kPa | 998.4
22789 kPa | 998.4
22819 kPa | 998.3
22855 kPa | 998.4
22886 kPa | 998.5
22915 kPa | 998.4
22952 kPa | 998.5
22982 kPa | 998.4
23012 kPa | 998.5
23049 kPa | 998.6
23079 kPa | 998.5
23110 kPa | 998.5
23147 kPa | 998.6
23178 kPa | 998.6
23209 kPa | 998.6
23246 kPa | 998.5
23277 kPa | 998.7
23308 kPa | 998.6
23339 kPa | 998.7
23377 kPa | 998.7
23410 kPa | 998.6
23442 kPa | 998.7
23480 kPa | 998.8
23512 kPa | 998.7
23543 kPa | 998.7
23576 kPa | 998.8
23614 kPa | 998.8
23646 kPa | 998.8
23685 kPa | 998.8
23717 kPa | 998.8
23749 kPa | 998.9
23788 kPa | 998.8
23821 kPa | 998.9
23854 kPa | 999
23888 kPa | 998.9
23927 kPa | 998.9
23960 kPa | 998.9
23999 kPa | 998.9
24032 kPa | 998.9
24066 kPa | 999.1
24099 kPa | 998.9
24140 kPa | 999.1
24173 kPa | 999.1
24213 kPa | 999
24247 kPa | 999
24281 kPa | 999.1
24324 kPa | 999.2
24358 kPa | 999.1
24392 kPa | 999.2
24426 kPa | 999.3
24468 kPa | 999.3
24502 kPa | 999.3
24543 kPa | 999.3
24578 kPa | 999.3
24613 kPa | 999.2
24655 kPa | 999.4
24726 kPa | 999.4
24769 kPa | 999.4
24841 kPa | 999.4
24878 kPa | 999.5
24921 kPa | 999.5
24958 kPa | 999.4
24994 kPa | 999.5
25038 kPa | 999.6
25075 kPa | 999.6
25112 kPa | 999.6
25155 kPa | 999.5
25192 kPa | 999.6
25230 kPa | 999.6
25277 kPa | 999.6
25314 kPa | 999.6
25352 kPa | 999.6
25389 kPa | 999.7
25427 kPa | 999.8
25472 kPa | 999.8
25511 kPa | 999.8
25549 kPa | 999.8
25595 kPa | 999.7
25633 kPa | 999.9
25672 kPa | 999.8
25718 kPa | 1000
25758 kPa | 1000
25799 kPa | 999.9
25839 kPa | 999.8
25886 kPa | 999.9
25918 kPa | 1000.1
26265 kPa | 1000.1
26414 kPa | 1000.4
26496 kPa | 1000.3
26525 kPa | 1000.3
26556 kPa | 1000.2
26581 kPa | 1000.3
26612 kPa | 1000.3
26638 kPa | 1000.3
26665 kPa | 1000.4
26696 kPa | 1000.4
26722 kPa | 1000.4
26776 kPa | 1000.3
26950 kPa | 1000.5
27004 kPa | 1000.4
27030 kPa | 1000.6
27063 kPa | 1000.7
27090 kPa | 1000.6
27291 kPa | 1000.7
27380 kPa | 1000.7
27414 kPa | 1000.6
27442 kPa | 1000.8
27476 kPa | 1000.8
27506 kPa | 1000.7
27536 kPa | 1000.8
27566 kPa | 1000.9
27704 kPa | 1000.9
27724 kPa | 1000.9
27744 kPa | 1000.9
27768 kPa | 1000.9
27787 kPa | 1001
27808 kPa | 1000.9
27832 kPa | 1000.9
27851 kPa | 1001
27872 kPa | 1001
27980 kPa | 1001
28001 kPa | 1001
